From BindingDB's records for doi:10.1124/jpet.104.073668 (Temple University, 2005)

What was measured:
[1] = biological target: Kappa-type opioid receptor (Homo sapiens, UniProt P41145)
Mu-type opioid receptor = Mu-type opioid receptor (Rattus norvegicus, UniProt P33535)
Chain of Mu-type opioid receptor (P33535 whole entry): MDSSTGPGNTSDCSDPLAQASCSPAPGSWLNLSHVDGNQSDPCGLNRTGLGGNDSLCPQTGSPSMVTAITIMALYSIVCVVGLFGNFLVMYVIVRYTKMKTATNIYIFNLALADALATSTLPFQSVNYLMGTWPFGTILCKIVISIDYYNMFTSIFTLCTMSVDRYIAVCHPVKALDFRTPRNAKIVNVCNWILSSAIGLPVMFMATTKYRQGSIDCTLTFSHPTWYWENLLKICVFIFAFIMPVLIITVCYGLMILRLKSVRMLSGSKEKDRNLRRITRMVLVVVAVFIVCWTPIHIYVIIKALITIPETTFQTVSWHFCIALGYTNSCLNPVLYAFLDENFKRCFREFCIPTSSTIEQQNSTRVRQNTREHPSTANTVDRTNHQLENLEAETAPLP

Chain of Kappa-type opioid receptor (P41145 whole entry): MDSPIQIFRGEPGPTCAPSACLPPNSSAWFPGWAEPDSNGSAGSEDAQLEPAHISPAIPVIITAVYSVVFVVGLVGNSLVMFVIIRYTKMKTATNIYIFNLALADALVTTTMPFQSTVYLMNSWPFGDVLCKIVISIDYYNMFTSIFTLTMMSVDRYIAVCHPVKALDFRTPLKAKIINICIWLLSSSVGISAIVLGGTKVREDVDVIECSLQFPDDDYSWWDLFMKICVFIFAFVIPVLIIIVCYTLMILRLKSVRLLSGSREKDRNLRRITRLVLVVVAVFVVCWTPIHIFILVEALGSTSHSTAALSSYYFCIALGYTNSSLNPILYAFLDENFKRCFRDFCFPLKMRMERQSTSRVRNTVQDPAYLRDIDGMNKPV

SMILES | Ki [1] | Ki (Mu-type opioid receptor)
COC(=O)C12CN(C)CC(C(=O)OC)(C1=O)C(c1cccc(F)c1)N(C)C2c1cccc(F)c1 (configuration not stated) | 248 nM | –
CN(C(=O)C=Cc1ccoc1)C1CCC2(O)C3Cc4ccc(O)c5c4C2(CCN3CC2CC2)C1O5 (configuration not stated) [CAS_213055] | – | 5.2 nM
